Assay results reported in article PMC9190014, “Structure, dynamics, and molecular inhibition of the Staphylococcus aureus m^1A22-tRNA methyltransferase TrmK” (The Journal of Biological Chemistry, 2022).
Like-named read-outs stand apart in the source and are kept apart here.

Experiments:
[1] = target: T1, m1A22-tRNA methyltransferase TrmK (SaTrmK) (Staphylococcus aureus, UniProt Q2FY13); test: intact-mass ESI-MS and LC-MS/MS peptide mapping of covalent adduct; MTase-Glo inhibition assay; format: binding
T1 construct: gene SAOUHSC_01661; recombinant SaTrmK, His-tag cleaved by TEVP, N-terminal glycine residue left

[2] = target: T1, m1A22-tRNA methyltransferase TrmK (SaTrmK); test: ITC; co-crystal structure at […] Å; DSF; format: binding
[3] = target: T1, m1A22-tRNA methyltransferase TrmK (SaTrmK); test: ITC; co-crystal structure at […] Å; DSF; format: binding; remark: listed apart in the source
[4] = target: T1, m1A22-tRNA methyltransferase TrmK (SaTrmK); test: MTase-Glo methyltransferase assay with tRNA-Leu, single concentration; format: biochemical

T1 sequence (Q2FY13 entry or part of it): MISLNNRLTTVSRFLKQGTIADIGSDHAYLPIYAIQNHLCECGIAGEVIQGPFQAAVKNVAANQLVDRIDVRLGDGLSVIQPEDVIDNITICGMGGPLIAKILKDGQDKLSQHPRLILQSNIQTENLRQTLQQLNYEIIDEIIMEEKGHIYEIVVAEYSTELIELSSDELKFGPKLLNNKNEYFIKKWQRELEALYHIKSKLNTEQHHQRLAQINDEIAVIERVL

Compound `CC1=CC(=O)c2c(O)cccc2C1=O` [plumbagin, 5-hydroxy-2-methyl-1,4-naphtoquinone] has an inhibition at 5 µM [1] of ~93%.

In the case of `Nc1ncnc2c1ncn2[C@@H]1O[C@H](CSCC[C@H](N)C(=O)O)[C@@H](O)[C@H]1O` [SAH], the Kd [2] is reported as 0.94 ± 0.05 µM.

Compound `C[S@@+](CC[C@H](N)C(=O)O)C[C@H]1O[C@@H](n2cnc3c(N)ncnc32)[C@H](O)[C@@H]1O` [SAM] has a Kd [3] of 39 ± 4 µM.

`Nc1ncnc2c1ncn2[C@@H]1O[C@H](C[C@@H](N)CC[C@H](N)C(=O)O)[C@@H](O)[C@H]1O` [sinefungin] gave an inhibition at 10 µM [4] of ~98%.
